pIC50: −log10 of the molar value.
Tested on: wild type HBV genomes population
Assay: Phenotypic drug susceptibility assay: Huh7 cells transfected with type-I vector clones, Southern blot of intracellular replicative HBV DNA intermediates
Settings: Hepatitis B virus, Huh-7, read-out: IC50 (intracellular replicative HBV DNA intermediates)

In the case of `Nc1ccn([C@@H]2CS[C@H](CO)O2)c(=O)n1` [lamivudine, β-L-(−)-2′,3′-dideoxy-3′-thiacytidine], the pIC50 was > 7.00.
